Test results published in patent publication US20240368667A1, “RAPID, LABEL-FREE ANTIBIOTIC SUSCEPTIBILITY OF BACTERIA DIRECTLY FROM POSITIVE BLOOD OR BODILY FLUID/CULTURE” (priority 2021, published 2024).
Values after ≈ are worked out from the molar mass of the structure shown. Where two headings read alike, the source gives them in different places.

How the values were obtained:
E. coli [1] = assay: Direct flow cytometric AST (high-throughput flow cytometry, HTFC) of sucrose-recovered bacteria; type: cell-based, Escherichia coli; parameters: key to susceptibility classification, HTFC: (S) sensitive; (I) intermediate; (R) resistant; conditions: for susceptibility classification, HTFC / MIC: sucrose-recovered, antibiotic 4 hours (37° C.); for MIC: Escherichia coli, 4 h, read-out: Minimum inhibitory concentration, HTFC
Method: AST workflow using bacteria recovered directly from positive blood culture. A 1-mL aliquot of bacteria recovered using separation method 2 was diluted 10-fold in CAMHB, the OD600 adjusted to ˜0.01, and a 50 μL aliquot distributed into each well of a 96-well plate containing CAMHB with and without ceftazidime, tobramycin, and either meropenem (E. coli and P. aeruginosa) or oxacillin (S. aureus). Following Clinical and Laboratory Standards Institute (CLSI) guidelines^33, 2% sodium chloride (NaCl) was present in wells containing oxacillin to assist in the detection of methicillin-resistant S. aureus (MRSA). […] To account for observed differences in doubling and lag times, E. coli and P. aeruginosa were incubated for 4 hours at 37° C., while S. aureus was incubated for 9 hours at 35° C. After incubation, antibiotic plates were removed from the incubator and directly stored on ice (i.e. no post-processing) until high-throughput flow cytometry (BD LSRFortessa with HTS-system, BD, Franklin Lakes, NJ). No-antibiotic controls and antibiotic-treated samples were handled identically.
MIC Determination by flow cytometry. Because antibiotic effects are observed in both the position of scatter signatures (morphology changes) and count rates (growth inhibition), a modified count rate, accounting for scatter position, was used to evaluate susceptibility. Briefly, no-antibiotic control populations (triplicate) were pooled, binned, and a convex hull boundary set at 1-standard deviation above the background (not including bins with zero counts) was drawn. […] The overlap ratio, measuring changes in morphology, was then computed by dividing the number of sample events within the no-antibiotic control boundary by the total number of events within the sample. As an increase in count rate attributed to viable bacteria in antibiotic-treated samples is not scientifically meaningful, the fractional overlap was multiplied by the minimum of the control and sample count rates to generate a modified count rate accounting for antibiotic-induced morphological changes. All modified count rates were normalized by the average of the no-antibiotic controls. For automatic MIC determination, normalized count rates corresponding to n (index of predicted MIC), n+1, n+2 were iteratively fit to a linear function with a frameshift of n+1 between iterations (FIGS. 8 and 9). […] A threshold of −0.01 instead of zero was used to mitigate the influence of small fluctuations in normalized count rates on susceptibility determinations.

E. coli [2] = assay: Broth microdilution (BMD) MIC; type: cell-based, Escherichia coli; parameters: key to susceptibility classification, BMD: (S) sensitive; (I) intermediate; (R) resistant; conditions: for MIC: Escherichia coli
Method: (§1) Microbroth dilution for minimum inhibitory concentrations (MIC) with and without sucrose recovery. To isolate bacteria without sucrose, culture media from positive BacT/alert FA PLUS aerobic culture bottles (bioMérieux, Durham, NC) was serially diluted and plated onto LB agar (Lennox; Sigma-Aldrich, St. Louis, MO). Bacterial suspensions were prepared by resuspending colonies in CAMHB with incubation on a MaxQ 4000 incubator shaker (Thermo Fisher Scientific, Waltham, MA) at 37° C. and ˜225 rpm for 3 hours. Bacteria recovered via Method 2 were diluted 10-fold in CAMHB. Following incubation or sucrose recovery and dilution, bacterial suspensions were adjusted to ˜0.004 OD600 with CAMHB and a 50-μL aliquot distributed to each well of a 96-well plate containing CAMHB with and without clinically relevant antibiotics (2-fold dilution series). Gram-negative plates included: ceftazidime (3rd generation cephalosporin, RPI corp., Mount Prospect, IL), cefepime (4th generation cephalosporin, Chem-Impex Int'l, Wood Dale, IL), meropenem (carbapenem, Tokyo Chemical Industry, Tokyo, Japan), levofloxacin (quinolone, Alfa Aesar, Haverhill, MA), and tobramycin (aminoglycoside, MP Biomedicals LLC, Santa Ana, CA), while S. aureus plates contained: oxacillin (beta-lactam, Sigma-Aldrich, St. Louis, MO), vancomycin (glycopeptide, Santa Cruz Biotechnology, Dallas, TX), erythromycin (macrolide, Sigma-Aldrich, St. Louis, MO), clindamycin ([…]), and ciprofloxacin (fluoroquinolone, Sigma-Aldrich, St. Louis, MO). Antibiotic plates were incubated at 37° C. for 16-20 hours (gram-negative) or 35° C. for 24 hours (S. aureus), at which time, plates were removed from the incubator and visually inspected for bacterial growth. The MIC was set at the lowest antibiotic concentration at which no growth was detected.

P. aeruginosa = assay: Broth microdilution (BMD) MIC; type: cell-based, Pseudomonas aeruginosa; parameters: key to susceptibility classification, BMD: (S) sensitive; (I) intermediate; (R) resistant; conditions: broth microdilution; for MIC: Pseudomonas aeruginosa, read-out: Minimum inhibitory concentration, BMD
Method: as §1

P. aeruginosa 77 = assay: Microbroth dilution MIC with and without sucrose recovery; type: cell-based, Pseudomonas aeruginosa; conditions: MIC given as multiple of S/I/R
Method: as §1
Influence of Sucrose on Bacterial MIC. To rule out the potential effect of sucrose exposure in bacterial antibiotic susceptibility, microbroth dilution studies were performed on bacteria recovered using standard practices (i.e. plating following positive blood culture) and through selective lysis coupled with centrifugation through the sucrose cushion (Method 2).

NC[C@H]1O[C@H](O[C@H]2[C@H](O)[C@@H](O[C@H]3O[C@H](CO)[C@@H](O)[C@H](N)[C@H]3O)[C@H](N)C[C@@H]2N)[C@H](N)C[C@@H]1O [Tobramycin, tobramycin]
susceptibility classification, HTFC (E. coli [1]; E. coli Blood Culture A): (S) | susceptibility classification, HTFC (E. coli [1]; E. coli Blood Culture B): (S) | susceptibility classification, HTFC (E. coli [1]; E. coli EC37): (S) | susceptibility classification, HTFC (E. coli [1]; E. coli EC-bank): (S) | susceptibility classification, HTFC (E. coli [1]; E. coli Mu76): (S) | susceptibility classification, HTFC (E. coli [1]; E. coli Mu218): (R) | susceptibility classification, HTFC (E. coli [1]; E. coli Mu890): (S) | flow cytometric count rate (E. coli [1]; E. coli, strain not named (FIG. 14), concentrations ≥0.25 μg/mL, no-antibiotic control ~11,000 evts/s): ≥ 100 evts/s | MIC (E. coli [1]; E. coli Blood Culture A): 0.25 µg/mL (≈ 0.535 µM) | MIC (E. coli [1]; E. coli Blood Culture B): 4 µg/mL (≈ 8.56 µM) | MIC (E. coli [1]; E. coli EC37): 0.25 µg/mL (≈ 0.535 µM) | MIC (E. coli [1]; E. coli EC-bank): ≤ 0.125 µg/mL | MIC (E. coli [1]; E. coli Mu76): 0.5 µg/mL (≈ 1.07 µM) | MIC (E. coli [1]; E. coli Mu218): 16 µg/mL (≈ 34.2 µM) | MIC (E. coli [1]; E. coli Mu890): 0.5 µg/mL (≈ 1.07 µM) | susceptibility classification, BMD (E. coli [2]; E. coli Blood Culture A, broth microdilution): (S) | susceptibility classification, BMD (E. coli [2]; E. coli Blood Culture B, broth microdilution): (I) | susceptibility classification, BMD (E. coli [2]; E. coli EC37, broth microdilution): (S) | susceptibility classification, BMD (E. coli [2]; E. coli EC-bank, broth microdilution): (S) | susceptibility classification, BMD (E. coli [2]; E. coli Mu76, broth microdilution): (S) | susceptibility classification, BMD (E. coli [2]; E. coli Mu218, broth microdilution): (R) | susceptibility classification, BMD (E. coli [2]; E. coli Mu890, broth microdilution): (S) | MIC (E. coli [2]; E. coli Blood Culture A, broth microdilution, read-out: Minimum inhibitory concentration, BMD): 1 µg/mL (≈ 2.14 µM) | MIC (E. coli [2]; E. coli Blood Culture B, broth microdilution, read-out: Minimum inhibitory concentration, BMD): 8 µg/mL (≈ 17.1 µM) | MIC (E. coli [2]; E. coli EC37, broth microdilution, read-out: Minimum inhibitory concentration, BMD): 0.25 µg/mL (≈ 0.535 µM) | MIC (E. coli [2]; E. coli EC-bank, broth microdilution, read-out: Minimum inhibitory concentration, BMD): 0.5 µg/mL (≈ 1.07 µM) | MIC (E. coli [2]; E. coli Mu76, broth microdilution, read-out: Minimum inhibitory concentration, BMD): 0.5 µg/mL (≈ 1.07 µM) | MIC (E. coli [2]; E. coli Mu218, broth microdilution, read-out: Minimum inhibitory concentration, BMD): 32 µg/mL (≈ 68.4 µM) | MIC (E. coli [2]; E. coli Mu890, broth microdilution, read-out: Minimum inhibitory concentration, BMD): 0.5 µg/mL (≈ 1.07 µM) | MIC (E. coli [2]; E. coli, strain not named (FIG. 14), read-out: MIC as determined by BMD): 0.25 µg/mL (≈ 0.535 µM) | susceptibility classification, BMD (P. aeruginosa; P. aeruginosa Blood Culture B): (S) | susceptibility classification, BMD (P. aeruginosa; P. aeruginosa Blood Culture C): (S) | susceptibility classification, BMD (P. aeruginosa; P. aeruginosa PA7): (R) | susceptibility classification, BMD (P. aeruginosa; P. aeruginosa PA46): (S) | susceptibility classification, BMD (P. aeruginosa; P. aeruginosa PA49): (S) | susceptibility classification, BMD (P. aeruginosa; P. aeruginosa PA81): (S) | susceptibility classification, BMD (P. aeruginosa; P. aeruginosa PAO1): (S) | MIC (P. aeruginosa; P. aeruginosa Blood Culture B): 2 µg/mL (≈ 4.28 µM) | MIC (P. aeruginosa; P. aeruginosa Blood Culture C): ≤ 0.125 µg/mL | MIC (P. aeruginosa; P. aeruginosa PA7): > 64 µg/mL | MIC (P. aeruginosa; P. aeruginosa PA46): 0.5 µg/mL (≈ 1.07 µM) | MIC (P. aeruginosa; P. aeruginosa PA49): 0.5 µg/mL (≈ 1.07 µM) | MIC (P. aeruginosa; P. aeruginosa PA81): 0.5 µg/mL (≈ 1.07 µM) | MIC (P. aeruginosa; PAO1, P. aeruginosa PAO1): 0.5 µg/mL (≈ 1.07 µM) | minimum inhibitory concentration (MIC), Standard (P. aeruginosa 77; P. aeruginosa 77 recovered by standard plating): ⅛S | minimum inhibitory concentration (MIC), Sucrose (P. aeruginosa 77; P. aeruginosa 77 recovered through sucrose (Method 2)): ⅛S
